This note sets out measurements from PubChem BioAssay (NCI).

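All cell lines were grown in 96-well plates and treated with compound for 48 hours. TGI: total growth inhibition.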

What all share (assay): inhibition of tumour cell growth, NCI panel, 48 h
In assay [1] the test system is HCT-116 colon.
Assay [2] has as its system KM12 colon.
Assay [3] relates to MALME-3M melanoma.
Assay [4] has as its system NCI-H522 lung.
The subject of assay [5] is OVCAR-5 ovarian.
For assay [6], the system named is SF-295 CNS.
Assay [7] has as its system SNB-19 CNS.
Assay [8] has as its system SR leukemia.
In assay [9] the test system is T-47D breast.
The subject of assay [10] is MCF7 breast.
Assay [11] relates to MOLT-4 leukemia.

With `CCN(CCCN(CC)C(=O)N[C@@H](Cc1ccccc1)C(=O)NC)C(=O)N[C@@H](Cc1ccccc1)C(=O)NC`, the TGI in [1], in assay [2], in assay [3], in [4], in assay [5] and in assay [6] was over 100 µM throughout. In addition, the TGI in [7], in assay [8] and in assay [9] was over 100 µM each time.
In the case of `CC(C)/C(Cl)=N\OC(=O)NNc1ccccc1`, the TGI in [1] was over 100 µM; in assay [2] it was over 100 µM; in assay [3], 38.3 µM; in assay [10] it was over 100 µM; in assay [11], 17.7 µM; in assay [4], 28.7 µM. In addition, the TGI in assay [5] was over 100 µM; in assay [6], over 100 µM; in assay [7], over 100 µM; in assay [9], 40.1 µM.
On to `Cc1ccc(C2=Nc3c(c(C)nn3-c3ccccc3)N=C(C(=O)O)C2)cc1`, for which the TGI in [1], in assay [2], in assay [3], in assay [10], in [11] and in assay [4] was over 10 µM in each case. Besides, the TGI in assay [5], in assay [6], in assay [7] and in [9] was over 10 µM throughout.
Regarding `CC(C)CCNC(=O)c1ccc(CNC(=O)/C=C/c2ccc(OCc3ccccc3)cc2)cc1`, the TGI in assay [1], in [2], in assay [10], in assay [11], in assay [5] and in assay [6] was over 100 µM throughout. For the same compound, the TGI in assay [7], in [8] and in assay [9] was over 100 µM in each case.
`N#CC(C#N)=C1CCCS(=O)(=O)c2ccccc21`: the TGI in assay [1], in assay [2], in assay [10], in [11], in assay [5] and in [6] was over 100 µM in each case. Moreover, the TGI in assay [7], in assay [8] and in [9] was over 100 µM throughout.
Take `CC(=O)Nc1ccc(Cl)c(Cl)c1`: the TGI in assay [1], in assay [2], in assay [3], in assay [11], in [4] and in assay [6] was over 100 µM in each case. Also, the TGI in assay [7] and in [8] was over 100 µM in each case.
Consider `O=C(O)CNC(=O)c1ccc([As](=O)(O)O)cc1`, for which the TGI in [1], in assay [2], in [3], in assay [10], in [11] and in [4] was over 100 µM in each case. In addition, the TGI in [5], in assay [6], in assay [7] and in assay [9] was over 100 µM in each case.
Regarding `Cc1cc2cccc(Cl)c2nc1C(=O)c1ccccc1`, the TGI was over 100 µM in assay [1]; over 100 µM in assay [2]; over 100 µM in [3]; over 100 µM in assay [4]; over 100 µM in assay [5]; 51.9 µM in assay [6]. The TGI in [7] and in assay [8] was over 100 µM each time.
`N#CSCc1cccc(Nc2cc(=O)[nH]c(=O)[nH]2)c1`: the TGI is over 100 µM in assay [1]; over 100 µM in assay [2]; over 100 µM in assay [3]; 38.9 µM in assay [10]; over 100 µM in assay [4]; over 100 µM in assay [5]. The TGI in [6], in [7] and in assay [9] was over 100 µM each time.
With `C=CCCCC12CCCc3cccc(c31)NC2=O` (centres undefined), the TGI in assay [1] came out at 26.4 µM; in [2], 35.6 µM; in [3], 30.2 µM; in assay [11], 55.1 µM; in assay [4] it was 31.3 µM; in assay [5], 43.5 µM. The figures for the TGI in assay [6], in [7] and in assay [8] were over 100 µM, 61.9 µM and over 100 µM, respectively.
With `CC(=O)/C(=C/n1c(=S)sc2ccccc21)C(=O)Nc1ccccc1C`, the TGI in [1], in [2], in assay [10], in assay [11], in assay [5] and in assay [6] was over 100 µM in each case. The TGI in [7] and in assay [9] was over 100 µM each time.
Turning to `Cc1ccc(C(=O)Nc2ccc(CP(=O)(O)O)cc2)cc1NC(=O)c1cccc(NC(=O)Nc2cccc(C(=O)Nc3cc(C(=O)Nc4ccc(CP(=O)(O)O)cc4)ccc3C)c2)c1`, the TGI in assay [1], in [2], in assay [3], in [10], in assay [4] and in assay [5] was over 100 µM in each case. The TGI in assay [6], in assay [7] and in [9] was over 100 µM in each case.
As for `COc1ccc(CNc2nc3ccc(C(F)(F)F)cc3nc2-c2ccccc2)cc1OC`, the TGI in [1], in assay [3], in assay [11], in [5], in [6] and in [7] was over 100 µM each time. In assay [8], this compound displayed a TGI of over 100 µM.
Turning to `O=C1NC(=S)NC(=O)C1C(c1ccccc1[N+](=O)[O-])C1C(=O)NC(=S)NC1=O`, the TGI in [1], in assay [2], in [3], in [10], in assay [11] and in assay [4] was over 100 µM throughout. The TGI in assay [5], in [6], in [7] and in assay [9] was over 100 µM throughout.
As for `COC1C=CC23c4cc5c(cc4C(O)OC2CN(C)C3C1)OCO5` (centres undefined), the TGI in assay [1] turned out to be 10.1 µM; in assay [2], 13.4 µM; in [3], 6.49 µM; in [11], 5.32 µM; in [4] it was 7 µM; in [5], 39.9 µM. Further, the TGI in assay [6] was 9.59 µM; in assay [7], 7.36 µM; in [8] it was 4.59 µM.
